{"source": "paper PMC10247784", "about": "“Physiological activation of human and mouse bitter taste receptors by bile acids” (Communications Biology, 2023)", "biological_target": "T1, mouse Tas2r108 (Mus musculus, UniProt Q9JKT3)", "T1 construct": "expressed in transfected cells; host or cells: HEK293T-Gα16gust44", "T1 sequence (Q9JKT3 1-297)": "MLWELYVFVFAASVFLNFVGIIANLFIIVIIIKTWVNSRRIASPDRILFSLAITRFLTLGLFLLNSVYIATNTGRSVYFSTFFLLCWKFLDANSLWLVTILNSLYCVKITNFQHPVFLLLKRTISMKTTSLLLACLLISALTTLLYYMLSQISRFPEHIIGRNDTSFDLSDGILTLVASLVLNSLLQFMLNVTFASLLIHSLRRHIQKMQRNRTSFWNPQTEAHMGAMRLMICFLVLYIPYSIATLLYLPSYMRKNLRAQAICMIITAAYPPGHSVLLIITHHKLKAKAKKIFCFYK", "assay": "Calcium imaging assay (FLIPR), HEK293T-Gα16gust44 cells transfected with mouse Tas2r108", "format": "cell-based", "in_short": "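Read-out is Fluo-4 fluorescence change (ΔF/F) after automated application of bile acids (DMSO stocks) to transiently transfected cells. Values are corrected for empty-vector cells and normalized to buffer. Dose-response from three independent experiments in duplicate; threshold concentration set at p < 0.01 versus mock.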"}
{"smiles": "C[C@H](CCC(=O)O)[C@H]1CC[C@H]2[C@@H]3[C@H](O)C[C@@H]4C[C@H](O)CC[C@]4(C)[C@H]3C[C@H](O)[C@]12C", "note": "[Cholic Acid, cholic acid]", "values": [{"measurement": "RLU", "setting": "Time 0 s", "value": 0, "unit": "RLU"}, {"measurement": "RLU", "setting": "Time 2 s", "value": 6.931, "unit": "RLU"}, {"measurement": "RLU", "setting": "Time 4 s", "value": 8.7879, "unit": "RLU"}, {"measurement": "RLU", "setting": "Time 6 s", "value": 7.879, "unit": "RLU"}, {"measurement": "RLU", "setting": "Time 8 s", "value": 1.863, "unit": "RLU"}, {"measurement": "RLU", "setting": "Time 12 s", "value": 5.906, "unit": "RLU"}, {"measurement": "RLU", "setting": "Time 14 s", "value": 3.861, "unit": "RLU"}, {"measurement": "RLU", "setting": "Time 16 s", "value": 1.935, "unit": "RLU"}, {"measurement": "RLU", "setting": "Time 18 s", "value": -12.1137, "unit": "RLU"}, {"measurement": "RLU", "setting": "Time 137.562 s", "value": 234.064, "unit": "RLU"}, {"measurement": "RLU", "setting": "Time 143.562 s", "value": 197.377, "unit": "RLU"}, {"measurement": "RLU", "setting": "Time 149.562 s", "value": 197.423, "unit": "RLU"}, {"measurement": "RLU", "setting": "Time 155.562 s", "value": 210.935, "unit": "RLU"}, {"measurement": "RLU", "setting": "Time 161.562 s", "value": 218.751, "unit": "RLU"}, {"measurement": "RLU", "setting": "Time 167.562 s", "value": 184.375, "unit": "RLU"}, {"measurement": "RLU", "setting": "Time 173.562 s", "value": 173.738, "unit": "RLU"}, {"measurement": "RLU", "setting": "Time 179.562 s", "value": 175.807, "unit": "RLU"}, {"measurement": "RLU", "setting": "Time 185.562 s", "value": 185.91, "unit": "RLU"}, {"measurement": "RLU", "setting": "Time 191.562 s", "value": 162.947, "unit": "RLU"}, {"measurement": "RLU", "setting": "Time 197.562 s", "value": 167.018, "unit": "RLU"}, {"measurement": "RLU", "setting": "Time 203.562 s", "value": 164.056, "unit": "RLU"}, {"measurement": "RLU", "setting": "Time 209.562 s", "value": 161.279, "unit": "RLU"}, {"measurement": "RLU", "setting": "Time 215.562 s", "value": 154.776, "unit": "RLU"}, {"measurement": "RLU", "setting": "Time 221.562 s", "value": 158.451, "unit": "RLU"}, {"measurement": "RLU", "setting": "Time 227.562 s", "value": 139.492, "unit": "RLU"}, {"measurement": "RLU", "setting": "Time 233.562 s", "value": 152.204, "unit": "RLU"}, {"measurement": "RLU", "setting": "Time 239.562 s", "value": 73.7327, "unit": "RLU"}, {"measurement": "RLU", "setting": "Time 245.562 s", "value": 142.097, "unit": "RLU"}, {"measurement": "RLU", "setting": "Time 293.562 s", "value": 160.558, "unit": "RLU"}, {"measurement": "RLU", "setting": "Time 299.562 s", "value": 159.088, "unit": "RLU"}, {"measurement": "RLU", "setting": "Time 305.562 s", "value": 175.817, "unit": "RLU"}, {"measurement": "RLU", "setting": "Time 311.562 s", "value": 159.088, "unit": "RLU"}, {"measurement": "RLU", "setting": "Time 317.562 s", "value": 162.782, "unit": "RLU"}, {"measurement": "RLU", "setting": "Time 323.562 s", "value": 182.257, "unit": "RLU"}, {"measurement": "RLU", "setting": "Time 329.562 s", "value": 162.985, "unit": "RLU"}, {"measurement": "RLU", "setting": "Time 335.562 s", "value": 195.196, "unit": "RLU"}, {"measurement": "RLU", "setting": "Time 341.562 s", "value": 184.414, "unit": "RLU"}, {"measurement": "RLU", "setting": "Time 347.562 s", "value": 175.395, "unit": "RLU"}, {"measurement": "RLU", "setting": "Time 353.562 s", "value": 161.041, "unit": "RLU"}, {"measurement": "RLU", "setting": "Time 359.562 s", "value": 176.226, "unit": "RLU"}, {"measurement": "Activation threshold concentration Tas2r108", "setting": "p < 0.01 vs empty vector", "value": 100, "unit": "µM"}, {"measurement": "RLU", "setting": "time 18.797 s", "value": 17.792, "unit": "RLU"}, {"measurement": "RLU", "setting": "time 20.797 s", "value": -23.002, "unit": "RLU"}, {"measurement": "RLU", "setting": "time 22.797 s", "value": -57.7927, "unit": "RLU"}, {"measurement": "RLU", "setting": "time 24.797 s", "value": -48.9168, "unit": "RLU"}, {"measurement": "RLU", "setting": "time 26.797 s", "value": -17.0044, "unit": "RLU"}, {"measurement": "RLU", "setting": "time 28.797 s", "value": 22.9392, "unit": "RLU"}, {"measurement": "RLU", "setting": "time 30.797 s", "value": 32.9758, "unit": "RLU"}, {"measurement": "RLU", "setting": "time 32.797 s", "value": 53.0645, "unit": "RLU"}, {"measurement": "RLU", "setting": "time 34.797 s", "value": 83.8222, "unit": "RLU"}, {"measurement": "RLU", "setting": "time 36.797 s", "value": 93.8063, "unit": "RLU"}, {"measurement": "RLU", "setting": "time 38.797 s", "value": 138.967, "unit": "RLU"}, {"measurement": "RLU", "setting": "time 40.797 s", "value": 140.665, "unit": "RLU"}, {"measurement": "RLU", "setting": "time 42.797 s", "value": 165.846, "unit": "RLU"}, {"measurement": "RLU", "setting": "time 44.797 s", "value": 192.868, "unit": "RLU"}, {"measurement": "RLU", "setting": "time 46.797 s", "value": 190.046, "unit": "RLU"}, {"measurement": "RLU", "setting": "time 48.797 s", "value": 199.412, "unit": "RLU"}, {"measurement": "RLU", "setting": "time 50.797 s", "value": 213.089, "unit": "RLU"}, {"measurement": "RLU", "setting": "time 52.797 s", "value": 215.082, "unit": "RLU"}, {"measurement": "RLU", "setting": "time 54.797 s", "value": 250.612, "unit": "RLU"}, {"measurement": "RLU", "setting": "time 56.797 s", "value": 250.502, "unit": "RLU"}, {"measurement": "RLU", "setting": "time 58.797 s", "value": 257.511, "unit": "RLU"}, {"measurement": "RLU", "setting": "time 60.797 s", "value": 256.774, "unit": "RLU"}, {"measurement": "RLU", "setting": "time 62.797 s", "value": 238.682, "unit": "RLU"}, {"measurement": "RLU", "setting": "time 64.797 s", "value": 249.009, "unit": "RLU"}, {"measurement": "RLU", "setting": "time 66.797 s", "value": 305.929, "unit": "RLU"}, {"measurement": "RLU", "setting": "time 68.797 s", "value": 280.306, "unit": "RLU"}, {"measurement": "RLU", "setting": "time 70.797 s", "value": 276.637, "unit": "RLU"}, {"measurement": "RLU", "setting": "time 72.797 s", "value": 284.565, "unit": "RLU"}, {"measurement": "RLU", "setting": "time 74.797 s", "value": 263.421, "unit": "RLU"}, {"measurement": "RLU", "setting": "time 76.797 s", "value": 265, "unit": "RLU"}, {"measurement": "RLU", "setting": "time 78.797 s", "value": 262.578, "unit": "RLU"}, {"measurement": "RLU", "setting": "time 80.797 s", "value": 288.384, "unit": "RLU"}, {"measurement": "RLU", "setting": "time 82.797 s", "value": 280.368, "unit": "RLU"}, {"measurement": "RLU", "setting": "time 84.797 s", "value": 274.722, "unit": "RLU"}, {"measurement": "RLU", "setting": "time 86.797 s", "value": 270.305, "unit": "RLU"}, {"measurement": "RLU", "setting": "time 88.797 s", "value": 275.266, "unit": "RLU"}, {"measurement": "RLU", "setting": "time 90.797 s", "value": 279.283, "unit": "RLU"}, {"measurement": "RLU", "setting": "time 92.797 s", "value": 261.98, "unit": "RLU"}, {"measurement": "RLU", "setting": "time 94.797 s", "value": 257.248, "unit": "RLU"}, {"measurement": "RLU", "setting": "time 96.797 s", "value": 285.43, "unit": "RLU"}, {"measurement": "RLU", "setting": "time 98.797 s", "value": 259.515, "unit": "RLU"}, {"measurement": "RLU", "setting": "time 100.797 s", "value": 270.732, "unit": "RLU"}, {"measurement": "RLU", "setting": "time 102.797 s", "value": 264.325, "unit": "RLU"}, {"measurement": "RLU", "setting": "time 104.797 s", "value": 245.741, "unit": "RLU"}, {"measurement": "RLU", "setting": "time 106.797 s", "value": 235.309, "unit": "RLU"}, {"measurement": "RLU", "setting": "time 108.797 s", "value": 255.707, "unit": "RLU"}, {"measurement": "RLU", "setting": "time 110.797 s", "value": 240.509, "unit": "RLU"}, {"measurement": "RLU", "setting": "time 112.797 s", "value": 233.706, "unit": "RLU"}, {"measurement": "RLU", "setting": "time 114.797 s", "value": 230.518, "unit": "RLU"}, {"measurement": "RLU", "setting": "time 116.797 s", "value": 242.495, "unit": "RLU"}, {"measurement": "RLU", "setting": "time 118.797 s", "value": 239.456, "unit": "RLU"}, {"measurement": "RLU", "setting": "time 120.797 s", "value": 255.452, "unit": "RLU"}, {"measurement": "RLU", "setting": "time 122.797 s", "value": 242.932, "unit": "RLU"}, {"measurement": "RLU", "setting": "time 124.797 s", "value": 218.082, "unit": "RLU"}, {"measurement": "RLU", "setting": "time 126.797 s", "value": 235.026, "unit": "RLU"}, {"measurement": "RLU", "setting": "time 128.797 s", "value": 232.943, "unit": "RLU"}, {"measurement": "RLU", "setting": "time 130.797 s", "value": 235.505, "unit": "RLU"}, {"measurement": "RLU", "setting": "time 132.797 s", "value": 229.818, "unit": "RLU"}, {"measurement": "RLU", "setting": "time 134.797 s", "value": 212.202, "unit": "RLU"}, {"measurement": "RLU", "setting": "time 136.797 s", "value": 197.953, "unit": "RLU"}]}
{"smiles": "C[C@H](CCC(=O)O)[C@H]1CC[C@H]2[C@@H]3[C@@H](O)C[C@@H]4C[C@H](O)CC[C@]4(C)[C@H]3CC[C@]12C", "note": "[Ursodeoxycholic Acid, ursodeoxycholic acid]", "values": [{"measurement": "Receptor response Tas2r108", "setting": "screening", "value": "does not respond"}]}
